# Experimental data from patent publication US7118895B2, “Process for producing aglycon by using diglycosidase and flavor-improved food containing the aglycon and converting agent to be used in the process” (Amano Enzyme Inc., priority 2000, dated 2006).
# Test system: Crude diglycosidase
# Assay: Examination of pH in the conversion into isoflavone aglycons by diglycosidase using soybean materials
# Format: biochemical, Penicillium multicolor IAM7153
# Details: for Decomposition efficiency of glycitin family in roasted soy flour / Decomposition efficiency of glycitin family in soymilk / existing ratio of aglycon of each isoflavone family: 55° C.
# In short: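 HPLC readout: isoflavone glycosides vs aglycons. Substrates: 50 mg soy material (roasted flour, soymilk, defatted bean, concentrated protein), pH 2–11 (HCl/NaOH). Crude diglycosidase solution 1.88 AU/mL, matched pH; 55° C; quenched with ethanol at 0/1/3/6 h; centrifuged 15,000 rpm, 4° C, 10 min.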
# [1] = pH6.6, heat treatment of enzyme: no, reaction time 0 h
# [2] = pH6.6, heat treatment of enzyme: no, reaction time 1 h
# [3] = pH6.6, heat treatment of enzyme: no, reaction time 3 h
# [4] = pH6.6, heat treatment of enzyme: no, reaction time 6 h
# [5] = pH6.6, heat treatment of enzyme: yes, reaction time 6 h
compound,measurement,setting,value
COc1cc2c(=O)c(-c3ccc(O)cc3)coc2cc1O [glycitein],Decomposition efficiency of glycitin family in roasted soy flour,"pH5, heat treatment of enzyme no, reaction time 0 h",8.6
same,Decomposition efficiency of glycitin family in roasted soy flour,"pH5, heat treatment of enzyme no, reaction time 1 h",77.1
same,Decomposition efficiency of glycitin family in roasted soy flour,"pH5, heat treatment of enzyme no, reaction time 3 h",93.5
same,Decomposition efficiency of glycitin family in roasted soy flour,"pH5, heat treatment of enzyme no, reaction time 6 h",100.0
same,Decomposition efficiency of glycitin family in roasted soy flour,"pH5, heat treatment of enzyme yes, reaction time 6 h",9.4
same,Decomposition efficiency of glycitin family in concentrated soybean protein,"pH5.1, heat treatment of enzyme: no, reaction time 0 h",11.1%
same,Decomposition efficiency of glycitin family in concentrated soybean protein,"pH5.1, heat treatment of enzyme: no, reaction time 1 h",62.1%
same,Decomposition efficiency of glycitin family in concentrated soybean protein,"pH5.1, heat treatment of enzyme: no, reaction time 3 h",73.4%
same,Decomposition efficiency of glycitin family in concentrated soybean protein,"pH5.1, heat treatment of enzyme: no, reaction time 6 h",78.5%
same,Decomposition efficiency of glycitin family in concentrated soybean protein,"pH5.1, heat treatment of enzyme: yes, reaction time 6 h",11.5%
same,Decomposition efficiency of glycitin family in defatted soybean,"pH5.4, heat treatment of enzyme: no, reaction time 0 h",36.0%
same,Decomposition efficiency of glycitin family in defatted soybean,"pH5.4, heat treatment of enzyme: no, reaction time 1 h",54.9%
same,Decomposition efficiency of glycitin family in defatted soybean,"pH5.4, heat treatment of enzyme: no, reaction time 3 h",not detected
same,Decomposition efficiency of glycitin family in defatted soybean,"pH5.4, heat treatment of enzyme: no, reaction time 6 h",67.7%
same,Decomposition efficiency of glycitin family in defatted soybean,"pH5.4, heat treatment of enzyme: yes, reaction time 6 h",60.7%
same,Decomposition efficiency of glycitin family in soymilk,"pH6.2, heat treatment of enzyme no, reaction time 0 h",6.2
same,Decomposition efficiency of glycitin family in soymilk,"pH6.2, heat treatment of enzyme no, reaction time 1 h",53.6
same,Decomposition efficiency of glycitin family in soymilk,"pH6.2, heat treatment of enzyme no, reaction time 3 h",65.5
same,Decomposition efficiency of glycitin family in soymilk,"pH6.2, heat treatment of enzyme no, reaction time 6 h",70.4
same,Decomposition efficiency of glycitin family in soymilk,"pH6.2, heat treatment of enzyme yes, reaction time 6 h",8.2
same,Decomposition efficiency of glycitin family in roasted soy flour,"pH6.5, heat treatment of enzyme no, reaction time 0 h",8.8
same,Decomposition efficiency of glycitin family in roasted soy flour,"pH6.5, heat treatment of enzyme no, reaction time 1 h",65.0
same,Decomposition efficiency of glycitin family in roasted soy flour,"pH6.5, heat treatment of enzyme no, reaction time 3 h",80.3
same,Decomposition efficiency of glycitin family in roasted soy flour,"pH6.5, heat treatment of enzyme no, reaction time 6 h",88.1
same,Decomposition efficiency of glycitin family in roasted soy flour,"pH6.5, heat treatment of enzyme yes, reaction time 6 h",9.8
same,Decomposition efficiency of glycitin family in concentrated soybean protein,[1],11.3%
same,Decomposition efficiency of glycitin family in defatted soybean,[1],60.4%
same,Decomposition efficiency of glycitin family in concentrated soybean protein,[2],42.2%
same,Decomposition efficiency of glycitin family in defatted soybean,[2],47.1%
same,Decomposition efficiency of glycitin family in concentrated soybean protein,[3],60.3%
same,Decomposition efficiency of glycitin family in defatted soybean,[3],46.4%
same,Decomposition efficiency of glycitin family in concentrated soybean protein,[4],68.1%
same,Decomposition efficiency of glycitin family in defatted soybean,[4],41.9%
same,Decomposition efficiency of glycitin family in concentrated soybean protein,[5],11.1%
same,Decomposition efficiency of glycitin family in defatted soybean,[5],49.7%
same,Decomposition efficiency of glycitin family in soymilk,"pH7.2, heat treatment of enzyme no, reaction time 0 h",6.1
same,Decomposition efficiency of glycitin family in soymilk,"pH7.2, heat treatment of enzyme no, reaction time 1 h",51.2
same,Decomposition efficiency of glycitin family in soymilk,"pH7.2, heat treatment of enzyme no, reaction time 3 h",53.8
same,Decomposition efficiency of glycitin family in soymilk,"pH7.2, heat treatment of enzyme no, reaction time 6 h",58.4
same,Decomposition efficiency of glycitin family in soymilk,"pH7.2, heat treatment of enzyme yes, reaction time 6 h",5.6
same,Decomposition efficiency of glycitin family in defatted soybean,"pH7.8, heat treatment of enzyme: no, reaction time 0 h",33.2%
same,Decomposition efficiency of glycitin family in defatted soybean,"pH7.8, heat treatment of enzyme: no, reaction time 1 h",42.5%
same,Decomposition efficiency of glycitin family in defatted soybean,"pH7.8, heat treatment of enzyme: no, reaction time 3 h",46.8%
same,Decomposition efficiency of glycitin family in defatted soybean,"pH7.8, heat treatment of enzyme: no, reaction time 6 h",50.9%
same,Decomposition efficiency of glycitin family in defatted soybean,"pH7.8, heat treatment of enzyme: yes, reaction time 6 h",44.2%
same,Decomposition efficiency of glycitin family in roasted soy flour,"pH8.5, heat treatment of enzyme no, reaction time 0 h",9.6
same,Decomposition efficiency of glycitin family in roasted soy flour,"pH8.5, heat treatment of enzyme no, reaction time 1 h",28.2
same,Decomposition efficiency of glycitin family in roasted soy flour,"pH8.5, heat treatment of enzyme no, reaction time 3 h",40.1
same,Decomposition efficiency of glycitin family in roasted soy flour,"pH8.5, heat treatment of enzyme no, reaction time 6 h",47.4
same,Decomposition efficiency of glycitin family in roasted soy flour,"pH8.5, heat treatment of enzyme yes, reaction time 6 h",9.1
same,Decomposition efficiency of glycitin family in concentrated soybean protein,"pH8.6, heat treatment of enzyme: no, reaction time 0 h",11.7%
same,Decomposition efficiency of glycitin family in concentrated soybean protein,"pH8.6, heat treatment of enzyme: no, reaction time 1 h",15.4%
same,Decomposition efficiency of glycitin family in concentrated soybean protein,"pH8.6, heat treatment of enzyme: no, reaction time 3 h",21.0%
same,Decomposition efficiency of glycitin family in concentrated soybean protein,"pH8.6, heat treatment of enzyme: no, reaction time 6 h",30.9%
same,Decomposition efficiency of glycitin family in concentrated soybean protein,"pH8.6, heat treatment of enzyme: yes, reaction time 6 h",11.3%
same,Decomposition efficiency of glycitin family in soymilk,"pH11.6, heat treatment of enzyme no, reaction time 0 h",6.2
same,Decomposition efficiency of glycitin family in soymilk,"pH11.6, heat treatment of enzyme no, reaction time 1 h",49.6
same,Decomposition efficiency of glycitin family in soymilk,"pH11.6, heat treatment of enzyme no, reaction time 3 h",53.5
same,Decomposition efficiency of glycitin family in soymilk,"pH11.6, heat treatment of enzyme no, reaction time 6 h",56.0
same,Decomposition efficiency of glycitin family in soymilk,"pH11.6, heat treatment of enzyme yes, reaction time 6 h",5.8
same,existing ratio of aglycon of each isoflavone family,"roasted soy flour, pH 4 for 6 hours",100%
same,existing ratio of aglycon of each isoflavone family,"soymilk, pH 3.5 for 6 hours",100%
